Earlier results in paper PMC9851200, “Multiparameter phenotypic screening for endogenous TFEB and TFE3 translocation identifies novel chemical series modulating lysosome function” (Autophagy, 2022).

Tests used:
Design in all cases: method as in original PKIS2 published data
[1] = biological target: T1, kinases (KINOMEscan panel) (Homo sapiens, UniProt Q15835); details: Published KINOMEscan; ref original PKIS2 published data; cited from earlier work
T1 sequence (Q15835 1-563): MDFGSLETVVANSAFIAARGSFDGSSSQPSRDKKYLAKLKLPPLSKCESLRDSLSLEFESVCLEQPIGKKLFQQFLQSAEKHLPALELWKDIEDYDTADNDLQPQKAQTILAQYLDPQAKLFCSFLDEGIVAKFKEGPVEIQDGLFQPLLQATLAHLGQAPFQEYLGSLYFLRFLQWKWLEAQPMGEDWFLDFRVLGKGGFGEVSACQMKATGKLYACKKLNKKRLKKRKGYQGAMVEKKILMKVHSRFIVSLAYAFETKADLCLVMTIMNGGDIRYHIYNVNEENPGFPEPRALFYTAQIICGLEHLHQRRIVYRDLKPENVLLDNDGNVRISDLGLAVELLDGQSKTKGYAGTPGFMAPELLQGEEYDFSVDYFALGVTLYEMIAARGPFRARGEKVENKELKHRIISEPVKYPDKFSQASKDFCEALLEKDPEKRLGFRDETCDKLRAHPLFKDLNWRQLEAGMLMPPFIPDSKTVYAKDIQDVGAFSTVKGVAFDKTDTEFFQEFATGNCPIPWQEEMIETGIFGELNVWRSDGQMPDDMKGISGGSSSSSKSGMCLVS

[2] = biological target: T2, kinases (KINOMEscan panel) (Homo sapiens, UniProt Q59H18); details: kinase TNNI3K; Published KINOMEscan; ref original PKIS2 published data; cited from earlier work
T2 sequence (Q59H18 1-835): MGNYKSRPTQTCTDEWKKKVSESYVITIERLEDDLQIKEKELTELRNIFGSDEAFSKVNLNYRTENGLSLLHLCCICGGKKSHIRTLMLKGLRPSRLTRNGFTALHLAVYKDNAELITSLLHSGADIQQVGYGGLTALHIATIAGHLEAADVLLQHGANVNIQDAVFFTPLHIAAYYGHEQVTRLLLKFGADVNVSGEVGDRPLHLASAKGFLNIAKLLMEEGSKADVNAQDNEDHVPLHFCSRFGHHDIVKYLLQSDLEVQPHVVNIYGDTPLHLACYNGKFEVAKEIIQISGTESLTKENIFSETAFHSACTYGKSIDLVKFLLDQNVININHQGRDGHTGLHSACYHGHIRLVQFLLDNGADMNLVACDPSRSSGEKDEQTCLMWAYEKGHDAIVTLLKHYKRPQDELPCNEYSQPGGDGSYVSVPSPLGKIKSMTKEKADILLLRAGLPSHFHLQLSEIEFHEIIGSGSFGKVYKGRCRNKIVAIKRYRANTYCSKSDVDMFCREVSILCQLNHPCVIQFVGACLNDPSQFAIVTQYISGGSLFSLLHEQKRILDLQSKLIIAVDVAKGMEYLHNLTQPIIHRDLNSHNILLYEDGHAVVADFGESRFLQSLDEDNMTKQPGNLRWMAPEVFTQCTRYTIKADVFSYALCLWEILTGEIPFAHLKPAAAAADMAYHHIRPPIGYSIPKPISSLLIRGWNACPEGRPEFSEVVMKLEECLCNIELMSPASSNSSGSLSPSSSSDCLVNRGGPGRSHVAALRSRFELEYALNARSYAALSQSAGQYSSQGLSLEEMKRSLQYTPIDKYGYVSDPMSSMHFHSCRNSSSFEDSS

[3] = biological target: T3, kinases (KINOMEscan panel) (Homo sapiens, UniProt O00444); details: kinase PLK4; Published KINOMEscan; ref original PKIS2 published data; cited from earlier work
T3 sequence (O00444 1-970): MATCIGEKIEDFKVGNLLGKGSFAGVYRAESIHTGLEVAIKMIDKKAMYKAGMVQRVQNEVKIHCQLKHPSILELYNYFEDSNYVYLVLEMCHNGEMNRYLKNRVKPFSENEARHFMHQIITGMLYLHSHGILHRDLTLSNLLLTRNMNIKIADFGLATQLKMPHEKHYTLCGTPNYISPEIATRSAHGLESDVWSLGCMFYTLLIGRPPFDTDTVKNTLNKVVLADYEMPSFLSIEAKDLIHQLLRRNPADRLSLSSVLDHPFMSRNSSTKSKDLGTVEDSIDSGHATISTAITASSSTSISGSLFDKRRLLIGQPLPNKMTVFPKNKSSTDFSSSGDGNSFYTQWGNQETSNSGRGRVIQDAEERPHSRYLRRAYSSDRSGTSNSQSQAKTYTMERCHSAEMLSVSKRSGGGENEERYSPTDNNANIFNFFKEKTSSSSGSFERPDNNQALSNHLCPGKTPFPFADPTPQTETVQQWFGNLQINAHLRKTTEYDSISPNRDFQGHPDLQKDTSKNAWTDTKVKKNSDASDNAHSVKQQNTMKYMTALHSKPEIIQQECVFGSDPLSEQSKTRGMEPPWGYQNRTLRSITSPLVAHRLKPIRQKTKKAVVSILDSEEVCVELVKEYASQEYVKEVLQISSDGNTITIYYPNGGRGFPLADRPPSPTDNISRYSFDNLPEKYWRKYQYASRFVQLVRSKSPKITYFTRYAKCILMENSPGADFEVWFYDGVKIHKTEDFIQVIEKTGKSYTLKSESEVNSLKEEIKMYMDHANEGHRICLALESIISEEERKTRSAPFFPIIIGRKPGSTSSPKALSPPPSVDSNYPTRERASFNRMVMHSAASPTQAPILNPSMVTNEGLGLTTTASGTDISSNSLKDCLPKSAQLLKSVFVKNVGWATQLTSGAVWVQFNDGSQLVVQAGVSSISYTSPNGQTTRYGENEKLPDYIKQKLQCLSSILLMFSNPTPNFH

[4] = biological target: T4, kinases (KINOMEscan panel) (Homo sapiens, UniProt Q9NWZ3); details: IRAK4; Published KINOMEscan; ref original PKIS2 published data; cited from earlier work
T4 sequence (Q9NWZ3 1-460): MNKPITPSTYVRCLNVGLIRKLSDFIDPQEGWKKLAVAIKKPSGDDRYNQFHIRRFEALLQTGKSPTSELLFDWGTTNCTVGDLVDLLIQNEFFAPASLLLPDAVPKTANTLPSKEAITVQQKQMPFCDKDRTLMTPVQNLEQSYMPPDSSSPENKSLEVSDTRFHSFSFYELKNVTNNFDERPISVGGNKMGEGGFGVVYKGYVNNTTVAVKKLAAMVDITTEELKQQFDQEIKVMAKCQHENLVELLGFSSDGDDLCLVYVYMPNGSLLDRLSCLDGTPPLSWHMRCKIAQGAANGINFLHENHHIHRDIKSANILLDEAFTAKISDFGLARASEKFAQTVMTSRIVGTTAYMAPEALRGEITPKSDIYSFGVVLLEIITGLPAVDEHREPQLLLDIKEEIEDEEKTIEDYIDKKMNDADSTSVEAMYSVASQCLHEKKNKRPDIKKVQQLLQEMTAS

Cc1cccc(-c2nc(Nc3ccncc3)c3ccccc3n2)n1 [NK215]
KINOMEscan GRK1 [1]: 0
KINOMEscan TNNI3K [2]: 20
KINOMEscan PLK4 [3]: 0
KINOMEscan IRAK4 [4]: 0
